Experimental data as given in patent US20060223837A1 (priority 2005, published 2006).
One block for each molecule: values may come before it.

Tests used:
[1] = molecular target: T1, human VR1 (Homo sapiens, UniProt Q8NER1); experiment: Human VR1 [3H]RTX binding assay; conditions: for h Binding % I (1 μM) / inhibition at 1 µM: inhibition of [3H]RTX binding at 1 μM; for Ki: [3H]RTX binding, HEK293 membranes; for inhibition at 1 µM: read-out: h Binding % I (1 μM)
T1 construct: expressed in transfected cells; host or cells: HEK293
T1 sequence (Q8NER1 whole entry): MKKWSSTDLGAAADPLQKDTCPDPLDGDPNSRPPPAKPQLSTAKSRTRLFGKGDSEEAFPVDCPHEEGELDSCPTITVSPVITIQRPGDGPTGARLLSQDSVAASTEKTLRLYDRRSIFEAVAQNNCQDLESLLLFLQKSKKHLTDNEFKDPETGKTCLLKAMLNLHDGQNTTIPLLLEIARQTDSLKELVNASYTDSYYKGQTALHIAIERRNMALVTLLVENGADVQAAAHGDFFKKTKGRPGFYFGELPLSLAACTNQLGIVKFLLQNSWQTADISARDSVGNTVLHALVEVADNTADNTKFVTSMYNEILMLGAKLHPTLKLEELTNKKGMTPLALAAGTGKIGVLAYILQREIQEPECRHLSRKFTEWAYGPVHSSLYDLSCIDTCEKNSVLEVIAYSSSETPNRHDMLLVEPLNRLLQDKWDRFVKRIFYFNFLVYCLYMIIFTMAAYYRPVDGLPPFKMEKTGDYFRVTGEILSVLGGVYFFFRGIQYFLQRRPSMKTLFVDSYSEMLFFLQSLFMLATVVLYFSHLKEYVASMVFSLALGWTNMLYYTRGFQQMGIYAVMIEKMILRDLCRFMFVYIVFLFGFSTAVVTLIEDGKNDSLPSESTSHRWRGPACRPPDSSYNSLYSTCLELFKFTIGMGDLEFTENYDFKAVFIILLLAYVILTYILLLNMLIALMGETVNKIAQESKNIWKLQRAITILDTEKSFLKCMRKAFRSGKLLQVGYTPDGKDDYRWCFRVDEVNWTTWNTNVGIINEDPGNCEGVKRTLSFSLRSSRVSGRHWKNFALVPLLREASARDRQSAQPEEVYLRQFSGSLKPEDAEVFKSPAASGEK
Description: Compounds of the present invention were tested for their ability to inhibit the binding of tritiated resiniferatoxin ([^3H] RTX) to human VR1 receptors in a [^3H] RTX binding assay, as previously described (Zhang, Sui-Po. Improved ligand binding assays for vanilloid receptors. PCT Int. Appl. (2002), WO 0233411 A1 20020425 AN 2002:315209; Grant, Elfrida R., Dubin, Adrienne E., Zhang, Sui-Po, Zivin, Robert A., Zhong, Zhong Simultaneous intracellular calcium and sodium flux imaging in human VR1-transfected human embryonic kidney cells: a method to resolve ionic dependence of VR1-mediated cell death. J. Pharmacol. Exp. ther., 2002, 300(1), 9-17.) HEK293 cells were transfected with human VR1 and washed with Hank's balanced Salt Solution, dissociated with cell dissociation buffer (Sigma), and then centrifuged at 1000× g for 5 min. Cell pellets were homogenized in cold 20 mM HEPES buffer (pH 7.4), containing 5.8 mM NaCl, 320 mM sucrose, 2 mM MgCl2, 0.75 CaCl2 and 5 mM KCl and centrifuged at 1000× g for 15 min. The resultant supernate was then centrifuged at 40000× g for 15 min. The pelleted membranes were stored in a freezer at −80 C.
Approximately 120 μg protein/ml from membranes were incubated with indicated concentrations of [^3H]RTX in 0.5 ml of the HEPES buffer (pH 7.4) containing 0.25 mg/mL fatty acid-free bovine serum albumin at 37 C for 60 min. After cooling the reaction mixture to 4 C, 0.1 mg (x-acid glycoprotein was added to each sample, which was incubated at 4 C for 15 min and then centrifuged at 18500× g for 15 min. The tip of the microcentrifuge tube containing the pellet was cut off. Bound radioactivity was quantified by scintillation counting. Non-specific binding was assessed in the presence of 200 nM unlabeled resiniferatoxin.
Data were calculated according to the equation: % inhibtion=(total binding−binding)*100/(total binding−non specific binding).
Ki values were calculated based on an average of duplicate measurements using a GraphPad Prism program.

[2] = molecular target: T1, human VR1; experiment: Human VR1 functional assay (FLIPR intracellular Ca2+); type: cell-based; conditions: for % Response Relative to EC80 of Capsaicin (12 μM) / Emax at 6 µM / Emax at 12 µM: agonist response; for Emax at 6 µM: read-out: % Response Relative to EC80 of Capsaicin (6 μM); for Emax at 12 µM: read-out: % Response Relative to EC80 of Capsaicin (12 μM); for h % I (5 μM) / inhibition at 1 µM / h % I (10 μM) / inhibition at 5 µM / inhibition at 10 µM: inhibition of capsaicin response; for EC50: agonist-induced Ca2+ increase, read-out: h EC50; for IC50: antagonism of capsaicin-induced Ca2+ increase, read-out: h IC50; for inhibition at 1 µM: read-out: h % I (1 μM); for inhibition at 5 µM: read-out: h % I (5 μM); for inhibition at 10 µM: read-out: h % I (10 μM)
Procedure, shortened: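 Read-out was Ca2+-dye fluorescence by FLIPR: compounds at varying concentrations were added to dye-loaded human VR1 HEK293 cells and monitored 5 min before capsaicin addition ([…], approx. EC80). Dose-response data, averaged over four wells, gave EC50 or IC50.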

SMILES: O=C(CCc1ccc(C(F)(F)F)cc1)Nc1ccc(-c2cccnc2)cc1 [Cpd 142]
h Binding % I (1 μM) [1]: 45% | % Response Relative to EC80 of Capsaicin (12 μM) [2]: 78%

SMILES: O=C(CCc1ccc(C(F)(F)F)cc1)Nc1ccc(-c2ccncc2)nc1 [Cpd 152]
h Binding % I (1 μM) [1]: 37% | % Response Relative to EC80 of Capsaicin (12 μM) [2]: 100%

SMILES: O=C(CCc1ccc(C(F)(F)F)cc1)Nc1ccc(-c2cccnc2)nc1 [Cpd 151]
h Binding % I (1 μM) [1]: 35% | % Response Relative to EC80 of Capsaicin (12 μM) [2]: 91%

SMILES: CC(C)(C)c1ccc(CCC(=O)Nc2ccc(-n3cncn3)cc2)cc1 [Cpd 198]
inhibition at 1 µM [1]: 37% | IC50 [2]: 3.82 nM

SMILES: O=C(CCc1ccc(Cl)cc1)Nc1ccc(-n2cnc(Cl)c2Cl)c(C(F)(F)F)c1 [Cpd 231]
Ki [1]: 26.2 nM | IC50 [2]: 240 nM | inhibition at 1 µM [2]: 90%

SMILES: CC(C)(C)c1ccc(CCC(=O)Nc2ccc(-c3ccncc3)nc2)cc1 [Cpd 137]
Ki [1]: 93 nM | inhibition at 1 µM [1]: 66% | Emax at 12 µM [2]: 96%

SMILES: CN(C)C(=O)c1cccc(-c2ccc(NC(=O)CCc3ccc(C(C)(C)C)cc3)cc2)c1 [Cpd 39]
h Binding % I (1 μM) [1]: 5% | h % I (10 μM) [2]: 24%

SMILES: O=C(CCc1ccc(Cl)cc1)Nc1ccc(-c2ccncc2)c(C(F)(F)F)c1 [Cpd 230]
Ki [1]: 1020 nM | IC50 [2]: 202 nM | inhibition at 5 µM [2]: 101%

SMILES: CC(C)(C)c1ccc(CCC(=O)Nc2cc(F)c(-c3ccccn3)c(F)c2)cc1 [Cpd 175]
Ki [1]: 142 nM | inhibition at 1 µM [2]: 75%

SMILES: CC(C)(C)c1ccc(CCC(=O)Nc2ccc(-c3cncnc3)cc2)cc1 [Cpd 113]
Ki [1]: 324 nM | inhibition at 1 µM [1]: 67% | Emax at 12 µM [2]: 101% | EC50 [2]: 773 nM

SMILES: O=C(CCc1ccc(C(F)(F)F)cc1)Nc1cnc(-c2ccc(O)cc2)c(C(F)(F)F)c1 [Cpd 221]
Ki [1]: 57.8 nM | IC50 [2]: 127 nM | inhibition at 5 µM [2]: 100%

SMILES: CC(C)(C)c1ccc(CCC(=O)Nc2ccc(C3CN=CO3)cc2)cc1 (stereo not drawn) [Cpd 194]
h Binding % I (1 μM) [1]: 45% | h % I (5 μM) [2]: 94%

SMILES: CC(C)(C)c1ccc(CCC(=O)Nc2ccccc2-c2cccc(O)c2)cc1 [Cpd 4]
h Binding % I (1 μM) [1]: 1% | h % I (10 μM) [2]: 35%

The remaining lines, values ahead:

Ki [1]: 169 nM | inhibition at 1 µM [1]: 68% | Emax at 6 µM [2]: 63% | Emax at 12 µM [2]: 101%
SMILES: CC(=O)Nc1cccc(-c2ccc(NC(=O)CCc3ccc(C(C)(C)C)cc3)cc2)c1 [Cpd 16]

h Binding % I (1 μM) [1]: 45% | h % I (5 μM) [2]: 30%
SMILES: CC(C)(C)c1ccc(CCC(=O)Nc2ccc(-c3ccccc3O)nc2)cc1 [Cpd 132]

inhibition at 1 µM [1]: 16% | Emax at 12 µM [2]: 84% | EC50 [2]: 2400 nM
SMILES: CC(C)(C)c1ccc(CCC(=O)Nc2ccc(-c3cccc(OCCN)c3)cc2)cc1 [Cpd 45]

Ki [1]: 42 nM | Emax at 6 µM [2]: 115% | EC50 [2]: 94 nM | inhibition at 1 µM [2]: 92%
SMILES: CC(C)(C)c1ccc(CCC(=O)Nc2ccc(-c3ccc(O)cc3)c(CO)c2)cc1 [Cpd 94]

Ki [1]: 84 nM | inhibition at 1 µM [1]: 87% | Emax at 12 µM [2]: 68% | inhibition at 10 µM [2]: 32%
SMILES: CC(C)(C)c1ccc(CCC(=O)Nc2ccc(-c3ccc(CO)cc3)cc2)cc1 [Cpd 24]

h Binding % I (1 μM) [1]: 1% | h % I (10 μM) [2]: 6%
SMILES: CC(C)(C)c1ccc(CCC(=O)Nc2ccc(-c3cccc(C(N)=O)c3)cc2CO)cc1 [Cpd 69]

inhibition at 1 µM [1]: 34% | IC50 [2]: 4770 nM | inhibition at 10 µM [2]: 53%
SMILES: CC(C)(C)c1ccc(CCC(=O)Nc2ccc(-c3cccc(NCCO)c3)cc2)cc1 [Cpd 46]
